Data published in the NIST ThermoML archive (doi:10.1021/je030226s).
± gives the expanded uncertainty stated by the source.

How the values were obtained:
[1] = refractive index (Na D-line) (dimensionless); xn = mol fraction of the nth substance listed; details: 101.32 kPa, Liquid
[2] = xn = mol fraction of the nth substance listed; details: 101.32 kPa, Liquid

CCCCCl [1-chlorobutane] + CCCO
Details | mass density, 288.15 K [kg/m3] | mass density, 298.15 K [kg/m3] | mass density, 308.15 K [kg/m3] | refractive index, 288.15 K | refractive index, 298.15 K | refractive index, 308.15 K | viscosity, 288.15 K [mPa·s] | viscosity, 298.15 K [mPa·s] | viscosity, 308.15 K [mPa·s]
[1], x2 = 0 | – | – | – | 1.4045 ± 0.0006 | 1.3993 ± 0.0006 | 1.3941 ± 0.0006 | – | – | –
[1], x2 = 0.05 | – | – | – | 1.4036 ± 0.0006 | 1.3984 ± 0.0006 | 1.3931 ± 0.0006 | – | – | –
[1], x2 = 0.1 | – | – | – | 1.4028 ± 0.0006 | 1.3976 ± 0.0006 | 1.3923 ± 0.0006 | – | – | –
[1], x2 = 0.2 | – | – | – | 1.4013 ± 0.0006 | 1.3962 ± 0.0006 | 1.3909 ± 0.0006 | – | – | –
[1], x2 = 0.3 | – | – | – | 1.3998 ± 0.0006 | 1.3948 ± 0.0006 | 1.3895 ± 0.0006 | – | – | –
[1], x2 = 0.4 | – | – | – | 1.3984 ± 0.0006 | 1.3934 ± 0.0006 | 1.3882 ± 0.0006 | – | – | –
[1], x2 = 0.5 | – | – | – | 1.3968 ± 0.0006 | 1.3919 ± 0.0006 | 1.3869 ± 0.0006 | – | – | –
[1], x2 = 0.6 | – | – | – | 1.3952 ± 0.0006 | 1.3904 ± 0.0006 | 1.3855 ± 0.0006 | – | – | –
[1], x2 = 0.7 | – | – | – | 1.3934 ± 0.0006 | 1.3888 ± 0.0006 | 1.384 ± 0.0006 | – | – | –
[1], x2 = 0.8 | – | – | – | 1.3914 ± 0.0006 | 1.387 ± 0.0006 | 1.3824 ± 0.0006 | – | – | –
[1], x2 = 0.9 | – | – | – | 1.3892 ± 0.0006 | 1.385 ± 0.0006 | 1.3807 ± 0.0006 | – | – | –
[1], x2 = 0.95 | – | – | – | 1.3881 ± 0.0006 | 1.384 ± 0.0006 | 1.3798 ± 0.0006 | – | – | –
[2], x2 = 0 | 892.2 ± 0.6 | 881 ± 0.7 | 869.7 ± 0.7 | – | – | – | 0.472 ± 0.009 | 0.423 ± 0.008 | 0.382 ± 0.008
[2], x2 = 0.05 | 888.3 ± 0.6 | 877.2 ± 0.7 | 866 ± 0.7 | – | – | – | 0.473 ± 0.009 | 0.426 ± 0.008 | 0.384 ± 0.008
[2], x2 = 0.1 | 884.9 ± 0.6 | 873.8 ± 0.7 | 862.6 ± 0.7 | – | – | – | 0.495 ± 0.009 | 0.44 ± 0.008 | 0.395 ± 0.008
[2], x2 = 0.2 | 878.2 ± 0.7 | 867.3 ± 0.7 | 856.2 ± 0.7 | – | – | – | 0.525 ± 0.009 | 0.461 ± 0.009 | 0.409 ± 0.008
[2], x2 = 0.3 | 871.2 ± 0.7 | 860.5 ± 0.7 | 849.7 ± 0.8 | – | – | – | 0.587 ± 0.01 | 0.511 ± 0.009 | 0.447 ± 0.008
[2], x2 = 0.4 | 864 ± 0.7 | 853.5 ± 0.7 | 842.9 ± 0.8 | – | – | – | 0.672 ± 0.01 | 0.576 ± 0.009 | 0.498 ± 0.009
[2], x2 = 0.5 | 856.3 ± 0.7 | 846.1 ± 0.8 | 835.8 ± 0.8 | – | – | – | 0.795 ± 0.011 | 0.67 ± 0.01 | 0.572 ± 0.009
[2], x2 = 0.6 | 848.1 ± 0.8 | 838.3 ± 0.8 | 828.3 ± 0.8 | – | – | – | 0.965 ± 0.013 | 0.802 ± 0.011 | 0.673 ± 0.01
[2], x2 = 0.7 | 839.2 ± 0.8 | 829.8 ± 0.8 | 820.3 ± 0.8 | – | – | – | 1.202 ± 0.015 | 0.977 ± 0.013 | 0.804 ± 0.011
[2], x2 = 0.8 | 829.6 ± 0.8 | 820.7 ± 0.8 | 811.5 ± 0.9 | – | – | – | 1.503 ± 0.018 | 1.206 ± 0.015 | 0.989 ± 0.013
[2], x2 = 0.9 | 819.2 ± 0.8 | 810.7 ± 0.9 | 802 ± 0.9 | – | – | – | 1.94 ± 0.023 | 1.531 ± 0.018 | 1.229 ± 0.015
[2], x2 = 0.95 | 813.5 ± 0.9 | 805.3 ± 0.9 | 796.9 ± 0.9 | – | – | – | 2.2 ± 0.026 | 1.729 ± 0.021 | 1.375 ± 0.017

CCCCCl [1-chlorobutane] + CCO
Details | mass density, 288.15 K [kg/m3] | mass density, 298.15 K [kg/m3] | mass density, 308.15 K [kg/m3] | refractive index, 288.15 K | refractive index, 298.15 K | refractive index, 308.15 K | viscosity, 288.15 K [mPa·s] | viscosity, 298.15 K [mPa·s] | viscosity, 308.15 K [mPa·s]
[1], x2 = 0 | – | – | – | 1.4045 ± 0.0006 | 1.3993 ± 0.0006 | 1.3941 ± 0.0006 | – | – | –
[1], x2 = 0.05 | – | – | – | 1.403 ± 0.0006 | 1.3978 ± 0.0006 | 1.3925 ± 0.0006 | – | – | –
[1], x2 = 0.1 | – | – | – | 1.4016 ± 0.0006 | 1.3964 ± 0.0006 | 1.3912 ± 0.0006 | – | – | –
[1], x2 = 0.2 | – | – | – | 1.3988 ± 0.0006 | 1.3937 ± 0.0006 | 1.3885 ± 0.0006 | – | – | –
[1], x2 = 0.3 | – | – | – | 1.3958 ± 0.0006 | 1.3907 ± 0.0006 | 1.3855 ± 0.0006 | – | – | –
[1], x2 = 0.4 | – | – | – | 1.3925 ± 0.0006 | 1.3875 ± 0.0006 | 1.3823 ± 0.0006 | – | – | –
[1], x2 = 0.5 | – | – | – | 1.389 ± 0.0006 | 1.384 ± 0.0006 | 1.3788 ± 0.0006 | – | – | –
[1], x2 = 0.6 | – | – | – | 1.3851 ± 0.0006 | 1.3802 ± 0.0006 | 1.375 ± 0.0006 | – | – | –
[1], x2 = 0.7 | – | – | – | 1.3807 ± 0.0006 | 1.3759 ± 0.0006 | 1.3708 ± 0.0006 | – | – | –
[1], x2 = 0.8 | – | – | – | 1.3756 ± 0.0006 | 1.3711 ± 0.0006 | 1.3661 ± 0.0006 | – | – | –
[1], x2 = 0.9 | – | – | – | 1.3697 ± 0.0006 | 1.3653 ± 0.0006 | 1.3609 ± 0.0006 | – | – | –
[1], x2 = 0.95 | – | – | – | 1.3665 ± 0.0006 | 1.3624 ± 0.0006 | 1.3581 ± 0.0006 | – | – | –
[2], x2 = 0 | 892.2 ± 0.6 | 881 ± 0.7 | 869.7 ± 0.7 | – | – | – | 0.472 ± 0.009 | 0.423 ± 0.008 | 0.382 ± 0.008
[2], x2 = 0.05 | 888.5 ± 0.6 | 877.3 ± 0.7 | 866 ± 0.7 | – | – | – | 0.475 ± 0.009 | 0.424 ± 0.008 | 0.384 ± 0.008
[2], x2 = 0.1 | 885.3 ± 0.6 | 874.2 ± 0.7 | 862.8 ± 0.7 | – | – | – | 0.479 ± 0.009 | 0.428 ± 0.008 | 0.388 ± 0.008
[2], x2 = 0.2 | 878.7 ± 0.7 | 867.7 ± 0.7 | 856.4 ± 0.7 | – | – | – | 0.5 ± 0.009 | 0.442 ± 0.008 | 0.395 ± 0.008
[2], x2 = 0.3 | 871.7 ± 0.7 | 860.8 ± 0.7 | 849.7 ± 0.8 | – | – | – | 0.529 ± 0.009 | 0.465 ± 0.009 | 0.41 ± 0.008
[2], x2 = 0.4 | 864.1 ± 0.7 | 853.4 ± 0.7 | 842.4 ± 0.8 | – | – | – | 0.566 ± 0.009 | 0.493 ± 0.009 | 0.43 ± 0.008
[2], x2 = 0.5 | 855.7 ± 0.7 | 845.2 ± 0.8 | 834.5 ± 0.8 | – | – | – | 0.63 ± 0.01 | 0.543 ± 0.009 | 0.469 ± 0.009
[2], x2 = 0.6 | 846.4 ± 0.8 | 836.1 ± 0.8 | 825.7 ± 0.8 | – | – | – | 0.708 ± 0.01 | 0.601 ± 0.01 | 0.515 ± 0.009
[2], x2 = 0.7 | 835.8 ± 0.8 | 825.9 ± 0.8 | 815.8 ± 0.9 | – | – | – | 0.807 ± 0.011 | 0.68 ± 0.01 | 0.581 ± 0.009
[2], x2 = 0.8 | 823.9 ± 0.8 | 814.4 ± 0.9 | 804.7 ± 0.9 | – | – | – | 0.932 ± 0.012 | 0.781 ± 0.011 | 0.67 ± 0.01
[2], x2 = 0.9 | 810 ± 0.9 | 800.9 ± 0.9 | 791.7 ± 0.9 | – | – | – | 1.099 ± 0.014 | 0.903 ± 0.012 | 0.765 ± 0.011
[2], x2 = 0.95 | 802.2 ± 0.9 | 793.4 ± 0.9 | 784.5 ± 0.9 | – | – | – | 1.209 ± 0.015 | 0.994 ± 0.013 | 0.839 ± 0.012
